The values below are quoted from earlier work in patent publication US7943666B2, “Esters of capsaicin for treating pain” (Trinity Laboratories, Inc., priority 2006, dated 2011).

The structures appear in SMILES notation. Bounds are passed on as bounds.

For data set [1] the following is noted: 540 mg per day orally for 30 days plus topical as needed; arthritis not responding to NSAIDs.
The conditions of data set [2]: rats, i.v. administration.

`CCCC/C=C\CCCCCCCC(=O)OCCCCCCCCCCCCCCCC` [cetyl myristoleate, cis-9-cetyl myristoleate]: the Individuals improved in data set [1] was 63.5%.

Regarding `COc1cc(CNC(=O)CCCCC=CC(C)C)ccc1O` [capsaicin, 8-methyl-N-vanillyl-6-nonenamide], the “Time to distribution to brain, spinal cord, liver and blood” value in data set [2] was no more than 20 min.
